The source of these data is patent US20230416248A1, “COMPOUNDS AND USES THEREOF” (Foghorn Therapeutics Inc., priority 2020, published 2023).

One test concerns the target T1, BRG-1 (Homo sapiens, UniProt P51532).
T1 construct: made in house; host or cells: High Five insect cells
Description: ATPase catalytic activity of BRG-1, ADP-Glo in vitro biochemical assay. To be noted: ATPase catalytic activity, ADP-Glo; 30 nM BRG-1, 400 μM ATP; read-out: BRG1 IC50. In short, it runs like this: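 Once the ATPase reaction finished, leftover ATP was depleted over 40 minutes at room temperature. Generated ADP was next turned back into ATP during a 60-minute room-temperature step. Luciferase-derived light was then measured.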
(In ADP-Glo the light output rises with the ADP produced.)

In a further test the target is T2, BRM (Homo sapiens, UniProt P51531).
T2 construct: made in house; host or cells: High Five insect cells
As to the kind of experiment: ATPase catalytic activity of BRM, ADP-Glo in vitro biochemical assay. Particulars: for IC50: ATPase catalytic activity, ADP-Glo, 30 nM BRM, 400 μM ATP; for Ratio*: ratio of BRG1 IC50 to BRM IC50. In short, it runs like this: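 ADP-Glo luminescence, after depletion of leftover ATP and conversion of ADP, reported the activity. The 1 h room-temperature reaction held 400 μM ATP, 20 nM salmon sperm DNA and 30 nM BRM in 20 mM Tris pH 8, 20 mM MgCl2, 50 mM NaCl, 0.1% Tween-20, 1 mM DTT.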

Each structure is given as a SMILES string.

T1 sequence (P51532 whole entry): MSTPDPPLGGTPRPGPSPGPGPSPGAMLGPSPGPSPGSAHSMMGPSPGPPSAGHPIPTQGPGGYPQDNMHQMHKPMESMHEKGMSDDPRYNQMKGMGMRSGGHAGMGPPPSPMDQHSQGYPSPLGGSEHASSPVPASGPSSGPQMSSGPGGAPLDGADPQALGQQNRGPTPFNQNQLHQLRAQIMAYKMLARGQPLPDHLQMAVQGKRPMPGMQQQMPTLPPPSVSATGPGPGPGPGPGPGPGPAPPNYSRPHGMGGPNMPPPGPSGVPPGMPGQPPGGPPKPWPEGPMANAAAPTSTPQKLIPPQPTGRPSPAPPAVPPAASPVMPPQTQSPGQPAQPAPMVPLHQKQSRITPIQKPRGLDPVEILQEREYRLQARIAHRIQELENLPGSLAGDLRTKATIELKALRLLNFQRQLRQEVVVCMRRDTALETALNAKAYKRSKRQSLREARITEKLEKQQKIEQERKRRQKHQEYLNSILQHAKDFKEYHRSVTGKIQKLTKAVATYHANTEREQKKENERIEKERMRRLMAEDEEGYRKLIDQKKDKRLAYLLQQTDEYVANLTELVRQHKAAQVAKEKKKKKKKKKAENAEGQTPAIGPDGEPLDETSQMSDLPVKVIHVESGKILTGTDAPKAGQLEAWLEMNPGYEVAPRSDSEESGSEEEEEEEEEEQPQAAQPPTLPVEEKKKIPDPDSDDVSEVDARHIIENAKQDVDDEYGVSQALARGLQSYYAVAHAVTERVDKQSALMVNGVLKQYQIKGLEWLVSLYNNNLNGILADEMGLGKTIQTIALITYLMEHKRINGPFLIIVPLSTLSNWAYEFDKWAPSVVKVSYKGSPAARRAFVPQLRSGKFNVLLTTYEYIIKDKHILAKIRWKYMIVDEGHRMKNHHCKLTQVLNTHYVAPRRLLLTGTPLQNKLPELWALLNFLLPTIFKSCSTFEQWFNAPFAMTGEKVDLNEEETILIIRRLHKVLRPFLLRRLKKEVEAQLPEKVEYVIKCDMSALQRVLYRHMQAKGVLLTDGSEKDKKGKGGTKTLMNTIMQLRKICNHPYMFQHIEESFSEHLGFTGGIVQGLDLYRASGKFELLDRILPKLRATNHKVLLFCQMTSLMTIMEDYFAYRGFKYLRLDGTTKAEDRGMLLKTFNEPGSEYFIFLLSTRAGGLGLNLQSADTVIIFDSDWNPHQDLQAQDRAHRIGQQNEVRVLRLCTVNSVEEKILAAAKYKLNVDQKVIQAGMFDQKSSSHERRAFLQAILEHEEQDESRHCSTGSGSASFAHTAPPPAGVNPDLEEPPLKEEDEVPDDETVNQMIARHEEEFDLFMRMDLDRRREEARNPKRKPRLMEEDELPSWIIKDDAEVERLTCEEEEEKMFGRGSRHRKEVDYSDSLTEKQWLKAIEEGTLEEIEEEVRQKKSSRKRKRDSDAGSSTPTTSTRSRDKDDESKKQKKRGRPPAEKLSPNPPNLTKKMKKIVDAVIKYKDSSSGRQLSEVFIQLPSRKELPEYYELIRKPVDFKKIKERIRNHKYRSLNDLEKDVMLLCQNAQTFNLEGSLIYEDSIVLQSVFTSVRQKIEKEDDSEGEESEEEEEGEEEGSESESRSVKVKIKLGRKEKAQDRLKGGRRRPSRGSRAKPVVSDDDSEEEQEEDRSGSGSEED
T2 sequence (P51531 whole entry): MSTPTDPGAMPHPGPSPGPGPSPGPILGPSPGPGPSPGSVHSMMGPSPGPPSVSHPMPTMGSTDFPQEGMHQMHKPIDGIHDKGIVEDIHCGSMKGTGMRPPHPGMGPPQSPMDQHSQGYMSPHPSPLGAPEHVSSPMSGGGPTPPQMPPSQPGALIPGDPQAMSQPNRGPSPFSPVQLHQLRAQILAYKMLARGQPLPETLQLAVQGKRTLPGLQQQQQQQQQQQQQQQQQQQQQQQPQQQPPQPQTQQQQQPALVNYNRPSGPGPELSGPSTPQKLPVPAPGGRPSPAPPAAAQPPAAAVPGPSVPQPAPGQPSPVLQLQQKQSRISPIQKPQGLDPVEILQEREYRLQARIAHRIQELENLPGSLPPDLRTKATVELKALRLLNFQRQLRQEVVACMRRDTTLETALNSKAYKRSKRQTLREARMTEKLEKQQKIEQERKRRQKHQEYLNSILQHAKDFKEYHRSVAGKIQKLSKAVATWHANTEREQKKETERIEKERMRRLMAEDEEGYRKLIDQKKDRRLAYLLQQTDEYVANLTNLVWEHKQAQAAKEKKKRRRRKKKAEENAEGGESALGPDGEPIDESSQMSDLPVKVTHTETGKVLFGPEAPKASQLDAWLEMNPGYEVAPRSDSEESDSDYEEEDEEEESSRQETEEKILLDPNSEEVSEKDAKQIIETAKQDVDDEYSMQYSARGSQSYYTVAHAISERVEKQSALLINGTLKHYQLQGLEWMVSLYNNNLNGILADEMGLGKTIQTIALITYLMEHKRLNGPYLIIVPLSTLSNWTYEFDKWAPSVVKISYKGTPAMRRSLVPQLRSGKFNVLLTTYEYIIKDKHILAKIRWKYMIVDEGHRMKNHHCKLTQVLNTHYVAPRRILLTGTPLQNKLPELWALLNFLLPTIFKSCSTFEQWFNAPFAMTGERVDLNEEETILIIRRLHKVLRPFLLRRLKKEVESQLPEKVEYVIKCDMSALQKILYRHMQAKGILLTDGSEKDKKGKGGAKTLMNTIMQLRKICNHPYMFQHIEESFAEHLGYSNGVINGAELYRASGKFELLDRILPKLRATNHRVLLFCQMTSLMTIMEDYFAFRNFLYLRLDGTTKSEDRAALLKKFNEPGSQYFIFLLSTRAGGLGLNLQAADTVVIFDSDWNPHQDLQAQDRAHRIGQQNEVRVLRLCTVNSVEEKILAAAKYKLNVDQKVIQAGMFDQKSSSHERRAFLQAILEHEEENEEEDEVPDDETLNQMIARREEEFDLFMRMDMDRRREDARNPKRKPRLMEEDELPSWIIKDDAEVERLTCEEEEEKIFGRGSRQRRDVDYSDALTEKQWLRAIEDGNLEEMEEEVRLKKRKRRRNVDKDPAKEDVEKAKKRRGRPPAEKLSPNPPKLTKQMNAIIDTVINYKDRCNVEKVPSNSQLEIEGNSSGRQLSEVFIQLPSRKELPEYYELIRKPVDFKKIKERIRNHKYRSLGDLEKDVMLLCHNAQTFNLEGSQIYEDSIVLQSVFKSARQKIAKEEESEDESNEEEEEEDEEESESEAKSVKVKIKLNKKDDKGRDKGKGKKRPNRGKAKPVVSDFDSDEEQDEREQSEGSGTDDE

`O=C(NCc1cc2nc(N3CCCc4cc(F)c(F)cc43)ccc2cn1)c1ccc2c(c1)S(=O)(=O)CCOC2` [Compound 625]: the IC50 at BRG-1 was 515 nM. Also, on BRM, the IC50 was determined as 36.7 nM and the “Ratio*” value worked out at 14.05.
The like results for `COCc1nc2c(cc1C)CCCN2c1ccc2cnc(CNC(=O)c3ccc4c(c3)S(=O)(=O)CCOC4)cc2n1` [Compound 626] were, in that order, 461 nM, 20 nM and 23.08.
The like results for `C[C@@H]1CN(c2cccc(-c3ccc4cnc(CNC(=O)c5ccc6c(c5)S(=O)(=O)CCOCC6)cc4n3)n2)C[C@H](C)O1` [Compound 627] were, in that order, 5 nM, 3.9 nM and 1.28.
The like results for `C[C@@H]1CN(c2cccc(-c3ccc4cnc(CNC(=O)c5ccc6c(c5)S(=O)(=O)CCCOC6)cc4n3)n2)C[C@H](C)O1` [Compound 628] were, in that order, 9.7 nM, 2.7 nM and 3.60.
With `COc1c(C)cnc2c1CCCN2c1ccc2cnc(CNC(=O)c3ccc4c(c3)S(=O)(=O)CCOC4)cc2n1` [Compound 629], the IC50 was determined as 85 nM at BRG-1 and 10 nM at BRM. For the same molecule, on BRM, the “Ratio*” value is listed as 8.49.
The matching figures for `O=C(NCc1cc2nc(N3CCCc4ccc(C5CCOC5)nc43)ccc2cn1)c1ccc2c(c1)S(=O)(=O)CCOC2` (stereo not drawn) [Compound 630]: 1160 nM, 48 nM and 24.14.
The matching figures for `Cc1cc2c(nc1C1CC1)N(c1ccc3cnc(CNC(=O)c4ccc5c(c4)S(=O)(=O)CCOC5)cc3n1)CCC2` [Compound 632]: 1130 nM, 58.3 nM and 19.38.
The like results for `CCO[C@@H](C)c1ccc2c(n1)N(c1ccc3cnc(CNC(=O)c4ccc5c(c4)S(=O)(=O)CCOC5)cc3n1)CCC2` [Compound 635] were, in that order, 2530 nM, 168 nM and 15.08.
As to `CCO[C@H](C)c1ccc2c(n1)N(c1ccc3cnc(CNC(=O)c4ccc5c(c4)S(=O)(=O)CCOC5)cc3n1)CCC2` [Compound 636], the IC50 at BRG-1 was 4260 nM. On BRM, half-maximal inhibition (IC50) required 271 nM and the “Ratio*” value came to 15.73.
The like results for `COc1cnc2c(c1C)CCCN2c1ccc2cnc(CNC(=O)c3ccc4c(c3)S(=O)(=O)CCOC4)cc2n1` [Compound 637] were, in that order, 207 nM, 20 nM and 10.34.
The matching figures for `COC[C@H]1COc2c(-c3ccc4cnc(CNC(=O)c5ccc6c(c5)S(=O)(=O)CCOC6)cc4n3)cccc2N1C` [Compound 638]: 883 nM, 227 nM and 3.90.
The like results for `COC[C@@H]1COc2c(-c3ccc4cnc(CNC(=O)c5ccc6c(c5)S(=O)(=O)CCOC6)cc4n3)cccc2N1C` [Compound 639] were, in that order, 780 nM, 102 nM and 7.66.
As to `O=C(NCc1cc2nc(N3CCCC4CCCCC43)ccc2cn1)c1ccc2c(c1)S(=O)(=O)CCOC2` (stereo not drawn) [Compound 640], the figures for the IC50 at BRG-1 and against BRM were 4400 nM and 615 nM, respectively. For the same molecule, the “Ratio*” value on BRM was determined as 7.16.
The like results for `C[C@@H]1CN(c2cccc(-c3ccc4cnc(CNC(=O)c5cc(F)c6c(c5)S(=O)(=O)[C@H](C)CN6C)cc4n3)n2)C[C@H](C)O1` [Compound 642] were, in that order, 2950 nM, 156 nM and 18.87.
The matching figures for `O=C(NCc1cc2nc(N3CCCc4ccc(OC(F)F)nc43)ccc2cn1)c1ccc2c(c1)S(=O)(=O)CCOC2` [Compound 643]: 889 nM, 108 nM and 8.21.
The matching figures for `O=C(NCc1cc2nc(N3CCCc4ccc(OC5CC5)cc43)ccc2cn1)c1ccc2c(c1)S(=O)(=O)CCOC2` [Compound 644]: 170 nM, 6.4 nM and 26.34.

Broadly, the IC50 is the concentration that gives 50% inhibition.
